Test results: PubChem BioAssay (NCI)
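All cell lines were grown in 96-well plates and treated with compound for 48 hours. Abbreviation: GI50, concentration required for 50% inhibition of growth. The concentration for full growth arrest is given as TGI.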

Assays:
Experiment in all cases: growth of human tumour cells (NCI), 48 h
[1] = tested on: RPMI-8226 leukemia
[2] = tested on: HT29 colon
[3] = tested on: A549 NSCLC
[4] = tested on: HCT-15 colon
[5] = tested on: U251 CNS
[6] = tested on: IGROV1 ovarian
[7] = tested on: DU-145 prostate
[8] = tested on: CCRF-CEM leukemia
[9] = tested on: MCF7 breast
[10] = tested on: T-47D breast

Compound: O=CN/C=C/c1ccccc1O
- TGI [1]: > 100 µM
- TGI [2]: > 100 µM
- TGI [3]: > 100 µM
- TGI [4]: > 100 µM
- TGI [5]: > 100 µM
- TGI [6]: > 100 µM
- TGI [7]: > 100 µM
- TGI [8]: > 100 µM

Compound: Cn1c(C2CC(C)(C)c3c2c2ccccc2n3C)cc2ccccc21 (stereo not given)
- TGI [1]: > 304 µM
- TGI [2]: > 304 µM
- TGI [3]: > 304 µM
- TGI [4]: > 304 µM
- TGI [5]: > 304 µM
- TGI [6]: > 304 µM
- TGI [8]: > 304 µM

Compound: O=C1CSc2ccncc2N1
- TGI [2]: > 100 µM
- TGI [3]: > 100 µM
- TGI [4]: > 100 µM
- TGI [5]: > 100 µM
- TGI [6]: > 100 µM
- TGI [8]: > 100 µM

Compound: O=C(O)c1cn(C2CC2)c2cc(N3CCN(C(=O)Nc4nc(-c5ccc(Cl)cc5)cs4)CC3)c(F)cc2c1=O
- GI50 [2]: 2.99 µM
- TGI [2]: > 100 µM
- GI50 [3]: 2.71 µM
- TGI [3]: > 100 µM
- GI50 [9]: 2.55 µM
- TGI [9]: > 100 µM
- GI50 [4]: 1.71 µM
- TGI [4]: > 100 µM
- GI50 [5]: 1.38 µM
- TGI [5]: 16.1 µM
- GI50 [6]: 0.815 µM
- TGI [6]: > 100 µM
- GI50 [10]: 1.65 µM
- TGI [10]: > 100 µM
- GI50 [7]: 2.29 µM
- TGI [7]: > 100 µM
- GI50 [8]: 1.22 µM
- TGI [8]: > 100 µM

Compound: Cn1c(-c2ccccc2)c/c(=N\NS(C)(=O)=O)c2cc(S(=O)(=O)O)ccc21
- TGI [1]: > 100 µM
- TGI [2]: > 100 µM
- TGI [3]: > 100 µM
- TGI [4]: > 100 µM
- TGI [5]: > 100 µM
- TGI [6]: > 100 µM
- TGI [8]: > 100 µM

Compound: COC(=O)c1c/c(=N\NC(=O)CC(=O)Nc2ccc(C)cc2)c2ccccc2o1
- TGI [1]: > 100 µM
- TGI [2]: > 100 µM
- TGI [3]: > 100 µM
- TGI [4]: > 100 µM
- TGI [5]: > 100 µM
- TGI [6]: > 100 µM
- TGI [8]: > 100 µM

Compound: COC(=O)c1cc(O)ccc1NC(=O)c1ccc(O)cc1
- TGI [1]: > 100 µM
- TGI [2]: > 100 µM
- TGI [3]: > 100 µM
- TGI [4]: > 100 µM
- TGI [5]: > 100 µM
- TGI [6]: > 100 µM
- TGI [8]: > 100 µM

Compound: O=C1CC23CC(=O)CC2(C1)c1ccccc1C3=O (stereo not given)
- TGI [1]: > 100 µM
- TGI [2]: > 100 µM
- TGI [3]: > 100 µM
- TGI [5]: > 100 µM
- TGI [6]: > 100 µM
- TGI [8]: > 100 µM

Compound: Cc1ccc(C2CC(c3cccc(Nc4ccncc4)c3)=NN2c2ccc(Cl)cc2)cc1 (stereo not given)
- GI50 [2]: 1.86 µM
- TGI [2]: 3.9 µM
- GI50 [3]: 1.73 µM
- TGI [3]: 3.29 µM
- GI50 [9]: 1.8 µM
- TGI [9]: 3.86 µM
- GI50 [4]: 1.83 µM
- TGI [4]: 3.43 µM
- GI50 [5]: 1.85 µM
- TGI [5]: 3.64 µM
- GI50 [6]: 1.72 µM
- TGI [6]: 3.24 µM
- GI50 [7]: 1.8 µM
- TGI [7]: 3.21 µM
- GI50 [8]: 2.64 µM
- TGI [8]: 7.66 µM

Compound: FC(F)(F)c1ccccc1C=NC12CC3CC(CC(C3)C1)C2
- TGI [1]: > 100 µM
- TGI [2]: > 100 µM
- TGI [3]: > 100 µM
- TGI [4]: > 100 µM
- TGI [5]: > 100 µM
- TGI [6]: > 100 µM

Compound: COC(=O)C1CCc2nnc(-c3cccnc3)n21 (stereo not given)
- TGI [1]: > 100 µM
- TGI [3]: > 100 µM
- TGI [4]: > 100 µM
- TGI [5]: > 100 µM
- TGI [6]: > 100 µM
- TGI [8]: > 100 µM

Compound: Nc1nn(C(=O)Nc2ccc(Cc3ccccc3)cc2)c2ccccc12
- GI50 [1]: 1.86 µM
- TGI [1]: 25.8 µM
- GI50 [2]: 2.39 µM
- TGI [2]: 17.6 µM
- GI50 [3]: 12.9 µM
- TGI [3]: 48.6 µM
- GI50 [9]: 0.555 µM
- TGI [9]: 8.82 µM
- GI50 [4]: 1.08 µM
- TGI [4]: > 100 µM
- GI50 [5]: 13.9 µM
- TGI [5]: 30.2 µM
- GI50 [6]: 6.98 µM
- TGI [6]: 48.8 µM
- GI50 [10]: 1.55 µM
- TGI [10]: > 100 µM
- GI50 [7]: 1.02 µM
- TGI [7]: 28.3 µM

Compound: NC(CCCNCc1ccccc1O)C(=O)O (stereo not given)
- TGI [1]: > 100 µM
- TGI [2]: > 100 µM
- TGI [3]: > 100 µM
- TGI [4]: > 100 µM
- TGI [6]: > 100 µM
- TGI [8]: > 100 µM

Compound: Clc1ccc(CCn2cncn2)c(Cl)c1
- TGI [2]: > 100 µM
- TGI [3]: > 100 µM
- TGI [4]: > 100 µM
- TGI [5]: > 100 µM
- TGI [6]: > 100 µM
- TGI [8]: > 100 µM

Compound: COc1cc2c(/C=C3/C(=O)Nc4c3ccc3ccccc43)c(Cl)[nH]c2cc1C
- GI50 [1]: 0.0144 µM
- GI50 [2]: 0.0246 µM
- TGI [2]: > 50 µM
- GI50 [3]: 0.0443 µM
- TGI [3]: 0.778 µM
- GI50 [9]: 0.0342 µM
- TGI [9]: > 50 µM
- GI50 [4]: 0.0427 µM
- TGI [4]: 0.143 µM
- GI50 [5]: 0.0559 µM
- TGI [5]: 9.94 µM
- GI50 [6]: 0.0125 µM
- GI50 [10]: > 50 µM
- TGI [10]: > 50 µM
- GI50 [7]: 0.165 µM
- TGI [7]: > 15.7 µM

Compound: COC(=O)/C(Cl)=C1/CC1COCc1ccccc1 (stereo not given)
- TGI [1]: 58.3 µM
- TGI [2]: 58 µM
- TGI [3]: > 100 µM
- TGI [4]: 35.8 µM
- TGI [6]: > 100 µM
- TGI [8]: 43.5 µM

Compound: O=C(CN/C=C\C(=O)c1cc(Cl)ccc1Cl)c1ccccc1
- GI50 [2]: 31.6 µM
- TGI [2]: > 100 µM
- GI50 [3]: 67 µM
- TGI [3]: > 100 µM
- GI50 [9]: 22.7 µM
- TGI [9]: 51.9 µM
- GI50 [4]: 18.3 µM
- TGI [4]: 37.6 µM
- GI50 [5]: 33.1 µM
- TGI [5]: 99.6 µM
- GI50 [6]: 29.1 µM
- TGI [6]: > 100 µM
- GI50 [10]: 33.4 µM
- TGI [10]: > 100 µM
- GI50 [7]: 33.4 µM
- TGI [7]: > 100 µM
- GI50 [8]: 18.5 µM
- TGI [8]: 36.7 µM

Compound: COC(C(=O)[C@@H](O)[C@@H](C)O)[C@@H]1Cc2cc3cc(O[C@H]4C[C@@H](O[C@H]5C[C@@H](O)[C@H](O)C(C)O5)[C@H](O)C(C)O4)c(C)c(O)c3c(O)c2C(=O)[C@H]1O[C@H]1C[C@@H](O[C@H]2C[C@@H](O[C@H]3C[C@@H](O)[C@@H](O)C(C)O3)[C@@H](O)C(C)O2)[C@H](O)C(C)O1 (stereo not given in full)
- GI50 [2]: 0.368 µM
- TGI [2]: > 32.5 µM
- GI50 [3]: 0.674 µM
- TGI [3]: > 32.5 µM
- GI50 [9]: 0.0415 µM
- TGI [9]: > 32.5 µM
- GI50 [4]: 6.59 µM
- TGI [4]: > 32.5 µM
- GI50 [5]: 0.121 µM
- TGI [5]: > 32.5 µM
- GI50 [10]: 0.106 µM
- TGI [10]: > 32.5 µM
- GI50 [7]: 0.61 µM
- TGI [7]: > 32.5 µM
- GI50 [8]: 1.84 µM
- TGI [8]: > 32.5 µM

Compound: COc1ccc(/C=C2\CCCC3=C2N=C2SC=NN2C3c2ccc(OC)c(OC)c2)cc1OC (stereo not given)
- GI50 [2]: 19.9 µM
- TGI [2]: > 100 µM
- GI50 [3]: 30.5 µM
- TGI [3]: > 100 µM
- GI50 [9]: 2.42 µM
- TGI [9]: > 100 µM
- GI50 [4]: 5.58 µM
- TGI [4]: 60.5 µM
- GI50 [5]: 22.7 µM
- TGI [5]: > 100 µM
- GI50 [6]: 28.9 µM
- TGI [6]: > 100 µM
- GI50 [10]: 5.21 µM
- TGI [10]: > 100 µM
- GI50 [7]: 23 µM
- TGI [7]: > 100 µM
- GI50 [8]: 6.16 µM
- TGI [8]: > 100 µM

Compound: [O-][N+]1=C(c2ccccc2)COc2ccccc21
- TGI [1]: > 100 µM
- TGI [2]: > 100 µM
- TGI [3]: > 100 µM
- TGI [4]: > 100 µM
- TGI [5]: > 100 µM
- TGI [6]: > 100 µM
- TGI [8]: > 100 µM
